Data taken from ChEMBL document CHEMBL4813950, “Comparing the efficacy and selectivity of Ck2 inhibitors. A phosphoproteomics approach” (Eur J Med Chem, 2021).
Calls of active or inactive are those of the source. The calls are words filed in the database; no cut-off is given here.

Legend:
[1] = target: DNA polymerase delta subunit 3 (Mus musculus) (UniProt Q9EQ28); experiment: Inhibition of Pold3 in mouse C2C12 cells assessed as reduction in phospho-sites occupancy at 4 uM after 5 hrs by SILAC based LC-MS/MS analysis relative to control; format: cell-based
[2] = target: T1, Casein kinase 2 (Mus musculus) (UniProt Q60737+P67871+O54833+Q8CH19); experiment: Inhibition of CK2 in mouse C2C12 cells assessed as reduction in Akt phosphorylation at S129 residues at 1 to 4 uM by Western blot analysis; format: cell-based; conditions: dose 1-4 µM
[3] = target: WD repeat and HMG-box DNA-binding protein 1 (Mus musculus) (UniProt P59328); experiment: Inhibition of Wdhd1 in mouse C2C12 cells assessed as reduction in phospho-sites occupancy at 4 uM after 5 hrs by SILAC based LC-MS/MS analysis relative to control; format: cell-based
[4] = target: Serine/arginine repetitive matrix protein 1 (Mus musculus) (UniProt Q52KI8); experiment: Inhibition of Srrm1 in mouse C2C12 cells assessed as reduction in phospho-sites occupancy at 4 uM after 5 hrs by SILAC based LC-MS/MS analysis relative to control; format: cell-based
[5] = target: Centrosomal protein of 170 kDa (Mus musculus) (UniProt Q6A065); experiment: Inhibition of Cep170 in mouse C2C12 cells assessed as reduction in phospho-sites occupancy at 4 uM after 5 hrs by SILAC based LC-MS/MS analysis relative to control; format: cell-based
[6] = target: Pleckstrin homology-like domain family B member 1 (Mus musculus) (UniProt Q6PDH0); experiment: Inhibition of Phldb1 in mouse C2C12 cells assessed as reduction in phospho-sites occupancy at 4 uM after 5 hrs by SILAC based LC-MS/MS analysis relative to control; format: cell-based
[7] = target: Lamina-associated polypeptide 2, isoforms beta/delta/epsilon/gamma (Mus musculus) (UniProt Q61029); experiment: Inhibition of LAP2B epsilon in mouse C2C12 cells assessed as reduction in phospho-sites occupancy at 4 uM after 5 hrs by SILAC based LC-MS/MS analysis relative to control; format: cell-based
[8] = target: Protein transport protein Sec31A (Mus musculus) (UniProt Q3UPL0); experiment: Inhibition of Sec31a in mouse C2C12 cells assessed as reduction in phospho-sites occupancy at 4 uM after 5 hrs by SILAC based LC-MS/MS analysis relative to control; format: cell-based
[9] = target: Eukaryotic translation initiation factor 5B (Mus musculus) (UniProt Q05D44); experiment: Inhibition of eukaryotic translation initiation factor 5B in mouse C2C12 cells assessed as reduction in phospho-sites occupancy at 4 uM after 5 hrs by SILAC based LC-MS/MS analysis relative to control; format: cell-based
[10] = target: Host cell factor 1 (Mus musculus) (UniProt Q61191); experiment: Inhibition of host cell factor 1 in mouse C2C12 cells assessed as reduction in phospho-sites occupancy at 4 uM after 5 hrs by SILAC based LC-MS/MS analysis relative to control
[11] = target: Coiled-coil domain-containing protein 43 (Mus musculus) (UniProt Q9CR29); experiment: Inhibition of Ccdc43 in mouse C2C12 cells assessed as reduction in phospho-sites occupancy at 4 uM after 5 hrs by SILAC based LC-MS/MS analysis relative to control; format: cell-based
[12] = target: DNA replication licensing factor MCM2 (Mus musculus) (UniProt P97310); experiment: Inhibition of Mcm2 in mouse C2C12 cells assessed as reduction in phospho-sites occupancy at 4 uM after 5 hrs by SILAC based LC-MS/MS analysis relative to control; format: cell-based
[13] = target: Phosducin-like protein 3 (Mus musculus) (UniProt Q8BVF2); experiment: Inhibition of Phosducin-like protein 3 in mouse C2C12 cells assessed as reduction in phospho-sites occupancy at 4 uM after 5 hrs by SILAC based LC-MS/MS analysis relative to control; format: cell-based
[14] = target: Unconventional myosin-XVIIIa (Mus musculus) (UniProt Q9JMH9); experiment: Inhibition of Unconventional myosin-18a in mouse C2C12 cells assessed as reduction in phospho-sites occupancy at 4 uM after 5 hrs by SILAC based LC-MS/MS analysis relative to control; format: cell-based
[15] = target: LIM domain and actin-binding protein 1 (Mus musculus) (UniProt Q9ERG0); experiment: Inhibition of Lima1 in mouse C2C12 cells assessed as reduction in phospho-sites occupancy at 4 uM after 5 hrs by SILAC based LC-MS/MS analysis relative to control; format: cell-based
[16] = target: Rho GTPase-activating protein 35 (Mus musculus) (UniProt Q91YM2); experiment: Inhibition of Arhgap35 in mouse C2C12 cells assessed as reduction in phospho-sites occupancy at 4 uM after 5 hrs by SILAC based LC-MS/MS analysis relative to control; format: cell-based
[17] = target: 182 kDa tankyrase-1-binding protein (Mus musculus) (UniProt P58871); experiment: Inhibition of tankyrase-1-binding protein in mouse C2C12 cells assessed as reduction in phospho-sites occupancy at 4 uM after 5 hrs by SILAC based LC-MS/MS analysis relative to control; format: cell-based
[18] = target: T1, Casein kinase 2 (Mus musculus); experiment: Inhibition of CK2 in mouse C2C12 cells assessed as reduction in CDC37 phosphorylation at S13 residues at 1 to 4 uM by Western blot analysis; format: cell-based; conditions: dose 1-4 µM
[19] = target: Dihydropyrimidinase-related protein 3 (Mus musculus) (UniProt Q62188); experiment: Inhibition of Dihydropyrimidinase-related protein 3 in mouse C2C12 cells assessed as reduction in phospho-sites occupancy at 4 uM after 5 hrs by SILAC based LC-MS/MS analysis relative to control; format: cell-based
[20] = target: Cyclin-dependent kinase 4 (Mus musculus) (UniProt P30285); experiment: Inhibition of Cdk4 in mouse C2C12 cells assessed as reduction in phospho-sites occupancy at 4 uM after 5 hrs by SILAC based LC-MS/MS analysis relative to control; format: cell-based
[21] = target: Eukaryotic translation initiation factor 2 subunit 2 (Mus musculus) (UniProt Q99L45); experiment: Inhibition of eukaryotic translation initiation factor 2 subunit 2 in mouse C2C12 cells assessed as reduction in phospho-sites occupancy at 4 uM after 5 hrs by SILAC based LC-MS/MS analysis relative to control; format: cell-based
[22] = target: Charged multivesicular body protein 3 (Mus musculus) (UniProt Q9CQ10); experiment: Inhibition of Chmp3 in mouse C2C12 cells assessed as reduction in phospho-sites occupancy at 4 uM after 5 hrs by SILAC based LC-MS/MS analysis relative to control; format: cell-based
[23] = target: DNA topoisomerase 2-beta (Mus musculus) (UniProt Q64511); experiment: Inhibition of DNA topoisomerase 2-beta in mouse C2C12 cells assessed as reduction in phospho-sites occupancy at 4 uM after 5 hrs by SILAC based LC-MS/MS analysis relative to control; format: cell-based
[24] = target: 1-phosphatidylinositol 4,5-bisphosphate phosphodiesterase delta-3 (Mus musculus) (UniProt Q8K2J0); experiment: Inhibition of Plcd3 in mouse C2C12 cells assessed as reduction in phospho-sites occupancy at 4 uM after 5 hrs by SILAC based LC-MS/MS analysis relative to control; format: cell-based

## COc1cc(/C=N/n2c(SC)nnc2-c2ccccc2)c(Br)cc1O
[1]
  fold change (FC): 1.66
[2]
  inhibition: Active
[3]
  fold change (FC): 1.66
[4]
  fold change (FC): 2.36
[5]
  fold change (FC): 1.86
[6]
  fold change (FC): 3.3
[7]
  fold change (FC): 3.86
[8]
  fold change (FC): 2.98
[9]
  fold change (FC): 1.55
[10]
  fold change (FC): 1.56
[11]
  fold change (FC): 2.68
[12]
  fold change (FC): 2.12
[13]
  fold change (FC): 4.01
[14]
  fold change (FC): 5.23
[15]
  fold change (FC): 2.39
[16]
  fold change (FC): 2.58
[17]
  fold change (FC): 3.06
[18]
  inhibition: Active
[19]
  fold change (FC): 3.25
[20]
  fold change (FC): 3.97
[21]
  fold change (FC): 1.6
[22]
  fold change (FC): 3.19
[23]
  fold change (FC): 1.6
[24]
  fold change (FC): 3.31
